Measurements: the supplement of paper PMC4862054

Experiments:
Conditions in all cases: incubation time: 72 h
[1] = system: HCC1143; test: normalised viability (% of control), CellTiter-Blue; higher = more viable cells (100 = DMSO, 0 = benzethonium chloride kill control)
Procedure, shortened: (§1)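 Vehicle (100) and a positive kill control (0) anchored the normalisation of each plate, and Z'-factor was used for quality control. Breast cancer cell lines in 20 µl suspension were incubated 72 h over compound in 5 µl medium in 384-well plates, followed by CellTiter-Blue at 560/590 nm. The value is normalised viability at a single listed concentration of the series.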

[2] = system: CAL-148; test: as above
Procedure, shortened: as §1

[3] = system: HCC1937; test: as above
Procedure, shortened: as §1

[4] = system: HDQ-P1; test: as above
Procedure, shortened: as §1

[5] = system: MFM-223; test: as above
Procedure, shortened: as §1

[6] = system: CAL-51; test: as above
Procedure, shortened: as §1

[7] = system: Hs578T; test: as above
Procedure, shortened: as §1

[8] = system: BT-474; test: as above
Procedure, shortened: as §1

[9] = system: BT-549; test: as above
Procedure, shortened: as §1

[10] = system: DU-4475; test: as above
Procedure, shortened: as §1

[11] = system: CAL-85-1; test: as above
Procedure, shortened: as §1

[12] = system: CAL-120; test: as above
Procedure, shortened: as §1

[13] = system: HCC1599; test: as above
Procedure, shortened: as §1

[14] = system: MDA-MB-468; test: as above
Procedure, shortened: as §1

[15] = system: MDA-MB-231; test: as above
Procedure, shortened: as §1

[16] = system: MDA-MB-436; test: as above
Procedure, shortened: as §1

[17] = system: SK-BR-3; test: as above
Procedure, shortened: as §1

[18] = system: MDA-MB-453; test: as above
Procedure, shortened: as §1

[19] = system: MCF-10A; test: normalised response (% of control), CellTiter-Glo; higher = more viable cells (100 = DMSO, 0 = benzethonium chloride kill control)
Procedure, shortened: (§2)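 Breast cancer cell lines were exposed for 72 h in 384-well plates to compound at 5 concentrations, 10-fold apart, covering a 10,000-fold range fixed for each compound. Plates were read for CellTox Green fluorescence and CellTiter-Glo luminescence and normalised to 0.1 % DMSO (100) and a positive kill control (0). Each value is the normalised signal at one concentration of the series.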

[20] = system: HCC1143; test: as above
Procedure, shortened: as §2

[21] = system: CAL-148; test: as above
Procedure, shortened: as §2

[22] = system: HCC1937; test: as above
Procedure, shortened: as §2

[23] = system: HDQ-P1; test: as above
Procedure, shortened: as §2

[24] = system: MFM-223; test: as above
Procedure, shortened: as §2

[25] = system: CAL-51; test: as above
Procedure, shortened: as §2

[26] = system: Hs578T; test: as above
Procedure, shortened: as §2

[27] = system: BT-474; test: as above
Procedure, shortened: as §2

[28] = system: BT-549; test: as above
Procedure, shortened: as §2

[29] = system: DU-4475; test: as above
Procedure, shortened: as §2

[30] = system: CAL-85-1; test: as above
Procedure, shortened: as §2

[31] = system: CAL-120; test: as above
Procedure, shortened: as §2

[32] = system: HCC1599; test: as above
Procedure, shortened: as §2

[33] = system: MDA-MB-468; test: as above
Procedure, shortened: as §2

[34] = system: MDA-MB-231; test: as above
Procedure, shortened: as §2

[35] = system: MDA-MB-436; test: as above
Procedure, shortened: as §2

[36] = system: SK-BR-3; test: as above
Procedure, shortened: as §2

[37] = system: MDA-MB-453; test: as above
Procedure, shortened: as §2

SMILES | normalised viability [1] [%] | normalised viability [2] [%] | normalised viability [3] [%] | normalised viability [4] [%] | normalised viability [5] [%] | normalised viability [6] [%] | normalised viability [7] [%] | normalised viability [8] [%] | normalised viability [9] [%] | normalised viability [10] [%] | normalised viability [11] [%] | normalised viability [12] [%] | normalised viability [13] [%] | normalised viability [14] [%] | normalised viability [15] [%] | normalised viability [16] [%] | normalised viability [17] [%] | normalised viability [18] [%] | normalised response [19] [%] | normalised response [20] [%] | normalised response [21] [%] | normalised response [22] [%] | normalised response [23] [%] | normalised response [24] [%] | normalised response [25] [%] | normalised response [26] [%] | normalised response [27] [%] | normalised response [28] [%] | normalised response [29] [%] | normalised response [30] [%] | normalised response [31] [%] | normalised response [32] [%] | normalised response [33] [%] | normalised response [34] [%] | normalised response [35] [%] | normalised response [36] [%] | normalised response [37] [%]
COc1cc2nccc(Oc3ccc(NC(=O)C4(C(=O)Nc5ccc(F)cc5)CC4)cc3)c2cc1OC [Cabozantinib] (0.1 nM) | 95.4 | 107 | 94.8 | 96.1 | 93 | 103 | 97.4 | 100 | 115 | 101 | 90.2 | 83.8 | 77.6 | 105 | 115 | 103 | 101 | 99.4 | 92.2 | 96.2 | 99.7 | 100 | 95.2 | 99.5 | 87.8 | 100 | 101 | 102 | 95.2 | 97.1 | 103 | 113 | 103 | 104 | 83.3 | 97.5 | 116
CN(N=O)C(=O)N[C@@H](C=O)[C@@H](O)[C@H](O)[C@H](O)CO [Streptozocin] (1 nM) | 99 | 111 | 99.1 | 116 | 92.8 | 110 | 103 | 81 | 102 | 104 | 91.4 | 101 | 132 | 102 | 106 | 100 | 106 | 111 | 113 | 105 | 102 | 104 | 104 | 105 | 80.8 | 106 | 98.8 | 102 | 95.7 | 94.2 | 103 | 96.4 | 97.5 | 108 | 104 | 106 | 92.1
Clc1ccc(Nc2nnc(Cc3ccncc3)c3ccccc23)cc1 [Vatalanib] (1 nM) | 89.5 | 90.5 | 78.3 | 91 | 106 | 99.4 | 99.8 | 86.8 | 100 | 97.9 | 94.3 | 84.3 | 95.2 | 98.8 | 87.7 | 125 | 93.2 | 99.8 | 110 | 97.1 | 102 | 101 | 103 | 108 | 99.8 | 101 | 101 | 93.2 | 104 | 102 | 97.3 | 105 | 114 | 99.1 | 98.9 | 111 | 103
O=C1CCC(N2C(=O)c3ccccc3C2=O)C(=O)N1 (stereo not drawn) [Thalidomide] (1 nM) | 100 | 122 | 90 | 110 | 96.1 | 86.2 | 106 | 76.9 | 95.2 | 101 | 109 | 115 | 104 | 105 | 88.7 | 97 | 102 | 108 | 104 | 95.5 | 96.4 | 97.7 | 101 | 98 | 93.9 | 98.2 | 99.2 | 104 | 95.1 | 100 | 99.3 | 111 | 98.5 | 104 | 101 | 96.8 | 96.6
